Tests used:
OCI-LY3 = test: Cytotoxicity assay (MTT, 72 h) OCI-LY3; type: cell-based, Human; settings: Homo sapiens, OCI-Ly3; 72 h, MTT assay; read-out: IC50 ± SD OCI-LY3
Protocol: (§1) Human tumor cells were seeded in 96-well cell culture plastic plates, allowed to attach, and exposed to scalar concentrations of the test compounds.

L-428 = test: Cytotoxicity assay (MTT, 72 h) L-428; type: cell-based, Human; settings: Homo sapiens, L-428; 72 h, MTT assay; read-out: IC50 ± SD L-428
Protocol: as §1

RPMI-8226 = test: Cytotoxicity assay (MTT, 72 h) RPMI-8226; type: cell-based; settings: Homo sapiens, read-out: IC50 ± SD RPMI-8226
Protocol: as §1

[1] = system: primary malignant pleural mesothelioma (MPM) cell lines; test: Primary malignant pleural mesothelioma (MPM) cell lines (summary); type: cell-based; settings: Homo sapiens, span over the cell line panel, 72 h, read-out: IC50 across primary mesothelioma cell lines (Table 7)
NCI-H460 NSCLC cells = test: FACS analysis of cell cycle and apoptosis; type: cell-based, Human; settings: 72 h at own IC80 dose, PI staining
H2A.X = test: Western blot, H2A.X induction in NCI-H460 cells; type: cell-based, Human; settings: 24 h; SAHA 5 μM, SN38 0.05 μM, 3d 0.125–0.2–0.5 μM
Protocol: (§2) The supernatant, containing the total proteins extracts, were transferred in new vials. The protein concentration was measured by Bradford Protein Assay. Equal amounts of proteins for each sample were then resolved by SDS-PAGE and loaded on 10–12% polyacrilamide gels. The proteins were then transferred on nitrocellulose membranes. Molecular weights were estimated based upon the relative migration with molecular weight protein markers.
(§3) The non-specific binding was blocked by incubation of membranes in TBS-tween (25 mM Tris, 150 mM NaCl, 0.1% Tween 20) with 5% nonfat dry milk (BIORAD, Milan) for 60 minutes. Subsequently, the membrane was incubated overnight with primary antibodies: anti-Histone H4 (Millipore, 1:500), anti-acetyl-H4 (Santa Cruz, 1:1000) anti-p21 (Santa Cruz, 1:1000), anti-acetyl-tubulin (abcam, 1:1000), anti-α-tubulin (Sigma, 1:5000), anti β-actin (Sigma, 1:5000) and anti-Topoisomerase 1 (Santa Cruz, 1:500). After three washes with TBST blots were incubated with HRP-coniugated secondary anti-mouse and anti-rabbit (Santa Cruz, 1:5000) 1 hour at room temperature. After three washes with TBST the blots were developed with ECL substrate (GE Healthcare) and chemiluminescence detected by ChemiDoc Imaging System (Biorad). The optical density of the protein bands detected by western blotting was normalized on α -tubulin levels and analyzed by ChemiDoc software (Biorad).
(§4) Cells were lysed in 0.5% NP-40 and 40 μg of total proteins were loaded on NuPAGE 4–12% (Invitrogen), transferred to a nitrocellulose paper and probed with specific antibodies.

p53 = test: Western blot, p53 in NCI-H460 cells; type: cell-based, Human; settings: 24 h; SAHA 5 μM, SN38 0.05 μM, 3d 0.125–0.2–0.5 μM
Protocol: as §2, §3, §4

p21 = test: Western blot, p21 in NCI-H460 cells; type: cell-based, Human; settings: 24 h; SAHA 5 μM, SN38 0.05 μM, 3d 0.125–0.2–0.5 μM
Protocol: as §2
as §3, with “software (Biorad). […]” for “software (Biorad).”

p16 = test: Western blot, p16 in NCI-H460 cells; type: cell-based, Human; settings: 24 h; SAHA 5 μM, SN38 0.05 μM, 3d 0.125–0.2–0.5 μM
Protocol: as §2, §3, §4

CycD1 = test: Western blot, CycD1 in NCI-H460 cells; type: cell-based, Human; settings: 24 h; SAHA 5 μM, SN38 0.05 μM, 3d 0.125–0.2–0.5 μM
Protocol: as §2, §3, §4

NCI-H460 = test: Cytotoxicity assay (SRB, 72 h) NCI-H460; type: cell-based, Human; settings: NCI-H460 cells

O=C(CCCCCCC(=O)Nc1ccccc1)NO [SAHA, suberoylanilide hydroxamic acid]
IC50 (OCI-LY3): 990 ± 300 nM | IC50 (L-428): 2300 ± 500 nM | IC50 (RPMI-8226): 1980 ± 500 nM | IC50 [1]: 4000 to 12000 nM | G0/1 (%) (NCI-H460 NSCLC cells): 65.2% | G2/M (%) (NCI-H460 NSCLC cells): 23.1% | S (%) (NCI-H460 NSCLC cells): 11.7% | Sub-G0/1 (%) (NCI-H460 NSCLC cells; apoptosis): 1.8% | H2A.X induction (DNA damage) (H2A.X): completely ineffective in H2A.X induction | p53 activation (p53): less effective in p53 up-regulation | expression of p21 (p21): induction of p21 | P16 regulation (p16): down | CycD1 regulation (CycD1): up-regulated

CCc1c2c(nc3ccc(O)cc13)-c1cc3c(c(=O)n1C2)COC(=O)[C@]3(O)CC [SN38]
IC80 (NCI-H460): ~50 nM | H2A.X induction (DNA damage) (H2A.X): completely ineffective in H2A.X induction | p53 activation (p53): less effective in p53 up-regulation | P16 regulation (p16): didn’t show any effect | CycD1 regulation (CycD1): didn’t show any effect

Source: paper PMC6177136, “Hybrid topoisomerase I and HDAC inhibitors as dual action anticancer agents” (PLoS ONE, 2018)
